Reference: patent publication US8242113B2, “Oxazolidinone derivatives with cyclic amidoxime or cyclic amidrazone pharmaceutical compositions thereof” (Legochem Biosciences, Inc., priority 2008, dated 2012)
Converted amounts (≈) assume the structure as drawn.

Columns and labels:
[1] = test system: methicillin-resistant Staphylococcus aureus (MRSA); experiment: In vitro antibacterial activity, broth microdilution (MIC90); details: read-out: Antibacterial activity MIC90, MRSA
From the text: (§1) MIC90 measurement was made according to the broth microdilution method based on the CLSI document [Clinical and Laboratory Standards Institute Document.
(§2) The test compounds in DMSO solution were further diluted 20-fold with sterile distilled water.

[2] = test system: linezolid- and vancomycin-resistant Enterococcus faecalis (LVRE); experiment: as above; details: read-out: Antibacterial activity MIC90, LVRE
From the text: as §1, §2

SMILES	MIC90 [1] [µg/mL]	MIC [2] [µg/mL]
CC(=O)NC[C@H]1CN(c2ccc(N3C=NN(CC(=O)NO)CC3)c(F)c2)C(=O)O1 [Compound 26]	16 (≈ 39.2 µM)	64 (≈ 157 µM)
CC(=O)NC[C@H]1CN(c2ccc(N3C=NN(CCO)CC3)c(F)c2)C(=O)O1 [Compound 27]	4 (≈ 10.5 µM)	64 (≈ 169 µM)
CC(=O)NC[C@H]1CN(c2ccc(N3C=NOCC3)c(F)c2)C(=O)O1 [Compound 28]	2 (≈ 5.95 µM)	16 (≈ 47.6 µM)
CC(=O)NC[C@H]1CN(c2ccc(N3C=NN(C(N)=S)CC3)c(F)c2)C(=O)O1 [Compound 29]	0.5 (≈ 1.27 µM)	4 (≈ 10.1 µM)
COC(=S)N1CCN(c2ccc(N3C[C@H](CNC(C)=O)OC3=O)cc2F)C=N1 [Compound 30]	1 (≈ 2.44 µM)	4 (≈ 9.77 µM)
CCOC(=S)N1CCN(c2ccc(N3C[C@H](CNC(C)=O)OC3=O)cc2F)C=N1 [Compound 31]	1 (≈ 2.36 µM)	8 (≈ 18.9 µM)
CC(=O)NC[C@H]1CN(c2ccc(N3C=NN(C(=S)OCCO)CC3)c(F)c2)C(=O)O1 [Compound 32]	8 (≈ 18.2 µM)	32 (≈ 72.8 µM)
CC(=O)NC[C@H]1CN(c2ccc(N3C=NN(C(=S)NCCO)CC3)c(F)c2)C(=O)O1 [Compound 33]	2 (≈ 4.56 µM)	8 (≈ 18.2 µM)
CC(=O)NC[C@H]1CN(c2ccc(N3C=NN(C(C)=S)CC3)c(F)c2)C(=O)O1 [Compound 34]	0.5 (≈ 1.27 µM)	4 (≈ 10.2 µM)
CCOC(=O)N1CCN(c2ccc(N3C[C@H](CNC(C)=O)OC3=O)cc2F)C=N1 [Compound 35]	2 (≈ 4.91 µM)	8 (≈ 19.6 µM)
CC(=O)NC[C@H]1CN(c2ccc(N3C=NN(C(=O)C(C)=O)CC3)c(F)c2)C(=O)O1 [Compound 36]	2 (≈ 4.93 µM)	8 (≈ 19.7 µM)
CC(=O)CN1CCN(c2ccc(N3C[C@H](CNC(C)=O)OC3=O)cc2F)C=N1 [Compound 37]	2 (≈ 5.11 µM)	8 (≈ 20.4 µM)
CC(=O)NC[C@H]1CN(c2ccc(N3C=NN(CC(C)O)CC3)c(F)c2)C(=O)O1 (stereo partly drawn) [Compound 38]	4 (≈ 10.2 µM)	8 (≈ 20.3 µM)
C=C(C)CN1CCN(c2ccc(N3C[C@H](CNC(C)=O)OC3=O)cc2F)C=N1 [Compound 39]	2 (≈ 5.14 µM)	8 (≈ 20.5 µM)
C=C(Cl)CN1CCN(c2ccc(N3C[C@H](CNC(C)=O)OC3=O)cc2F)C=N1 [Compound 40]	2 (≈ 4.88 µM)	8 (≈ 19.5 µM)
CC(=O)NC[C@H]1CN(c2ccc(N3C=NN(C4CCC4)CC3)c(F)c2)C(=O)O1 [Compound 41]	2 (≈ 5.14 µM)	4 (≈ 10.3 µM)
N#CCC(=O)NC[C@H]1CN(c2ccc(N3C=NN(C=O)CC3)c(F)c2)C(=O)O1 [Compound 42]	8 (≈ 20.6 µM)	32 (≈ 82.4 µM)
CCOC(=O)NC[C@H]1CN(c2ccc(N3C=NN(C=O)CC3)c(F)c2)C(=O)O1 [Compound 43]	2 (≈ 5.08 µM)	32 (≈ 81.3 µM)
CCNC(=O)NC[C@H]1CN(c2ccc(N3C=NN(C=O)CC3)c(F)c2)C(=O)O1 [Compound 44]	8 (≈ 20.4 µM)	64 (≈ 163 µM)

SMILES	MIC90 [1] [µg/mL]	MIC [2] [µg/mL]
O=CN1CCN(c2ccc(N3C[C@H](CNC(=O)C(F)F)OC3=O)cc2F)C=N1 [Compound 45]	1 (≈ 2.5 µM)	4 (≈ 10 µM)
O=C(NC[C@H]1CN(c2ccc(N3C=NNCC3)c(F)c2)C(=O)O1)C(F)F [Compound 46]	2 (≈ 5.39 µM)	16 (≈ 43.1 µM)
O=C(NC[C@H]1CN(c2ccc(N3C=NN(C(=O)CO)CC3)c(F)c2)C(=O)O1)C(F)F [Compound 47]	2 (≈ 4.66 µM)	8 (≈ 18.6 µM)
CCN1CCN(c2ccc(N3C[C@H](CNC(=O)C(F)F)OC3=O)cc2F)C=N1 [Compound 48]	4 (≈ 10 µM)	16 (≈ 40.1 µM)
C#CCN1CCN(c2ccc(N3C[C@H](CNC(=O)C(F)F)OC3=O)cc2F)C=N1 [Compound 49]	1 (≈ 2.44 µM)	8 (≈ 19.5 µM)
N#CCN1CCN(c2ccc(N3C[C@H](CNC(=O)C(F)F)OC3=O)cc2F)C=N1 [Compound 50]	2 (≈ 4.87 µM)	16 (≈ 39 µM)
O=CN1CCN(c2ccc(N3C[C@H](CNC(=O)C(Cl)Cl)OC3=O)cc2F)C=N1 [Compound 51]	1 (≈ 2.31 µM)	4 (≈ 9.25 µM)
O=CN1CCN(c2ccc(N3C[C@H](CNC(=O)c4ccno4)OC3=O)cc2F)C=N1 [Compound 52]	2 (≈ 4.8 µM)	16 (≈ 38.4 µM)
CCOC(=S)NC[C@H]1CN(c2ccc(N3C=NN(C=O)CC3)c(F)c2)C(=O)O1 [Compound 54]	0.5 (≈ 1.22 µM)	4 (≈ 9.77 µM)
CC(C)OC(=S)NC[C@H]1CN(c2ccc(N3C=NN(C=O)CC3)c(F)c2)C(=O)O1 [Compound 55]	2 (≈ 4.72 µM)	8 (≈ 18.9 µM)
CCNC(=S)NC[C@H]1CN(c2ccc(N3C=NN(C=O)CC3)c(F)c2)C(=O)O1 [Compound 56]	4 (≈ 9.79 µM)	8 (≈ 19.6 µM)
COC(=S)NC[C@H]1CN(c2ccc(N3C=NOCC3)c(F)c2)C(=O)O1 [Compound 57]	0.25 (≈ 0.679 µM)	2 (≈ 5.43 µM)
COC(=S)NC[C@H]1CN(c2ccc(N3C=NNCC3)c(F)c2)C(=O)O1 [Compound 58]	0.25 (≈ 0.68 µM)	4 (≈ 10.9 µM)
COC(=S)NC[C@H]1CN(c2ccc(N3C=NN(C(=O)COC(C)=O)CC3)c(F)c2)C(=O)O1 [Compound 59]	0.5 (≈ 1.07 µM)	2 (≈ 4.28 µM)
COC(=S)NC[C@H]1CN(c2ccc(N3C=NN(C)CC3)c(F)c2)C(=O)O1 [Compound 60]	0.25 (≈ 0.655 µM)	2 (≈ 5.24 µM)
CCN1CCN(c2ccc(N3C[C@H](CNC(=S)OC)OC3=O)cc2F)C=N1 [Compound 61]	0.5 (≈ 1.26 µM)	4 (≈ 10.1 µM)
C=CCN1CCN(c2ccc(N3C[C@H](CNC(=S)OC)OC3=O)cc2F)C=N1 [Compound 62]	0.0625 (≈ 0.153 µM)	2 (≈ 4.91 µM)
C#CCN1CCN(c2ccc(N3C[C@H](CNC(=S)OC)OC3=O)cc2F)C=N1 [Compound 63]	0.5 (≈ 1.23 µM)	4 (≈ 9.87 µM)
CC#CCN1CCN(c2ccc(N3C[C@H](CNC(=S)OC)OC3=O)cc2F)C=N1 [Compound 64]	2 (≈ 4.77 µM)	8 (≈ 19.1 µM)

SMILES	MIC90 [1] [µg/mL]	MIC [2] [µg/mL]
COC(=S)NC[C@H]1CN(c2ccc(N3C=NN(CC#N)CC3)c(F)c2)C(=O)O1 [Compound 65]	0.5 (≈ 1.23 µM)	4 (≈ 9.84 µM)
C=C(Cl)CN1CCN(c2ccc(N3C[C@H](CNC(=S)OC)OC3=O)cc2F)C=N1 [Compound 66]	0.5 (≈ 1.13 µM)	4 (≈ 9.05 µM)
COC(=S)NC[C@H]1CN(c2ccc(N3C=NN(CC4CC4)CC3)c(F)c2)C(=O)O1 [Compound 67]	0.5 (≈ 1.19 µM)	4 (≈ 9.49 µM)
COC(=S)NC[C@H]1CN(c2ccc(N3C=NN(C4CCC4)CC3)c(F)c2)C(=O)O1 [Compound 68]	0.25 (≈ 0.593 µM)	2 (≈ 4.74 µM)
CCOC(=O)CN1CCN(c2ccc(N3C[C@H](CNC(=S)OC)OC3=O)cc2F)C=N1 [Compound 69]	2 (≈ 4.41 µM)	8 (≈ 17.6 µM)
COC(=S)NC[C@H]1CN(c2ccc(N3C=NN(CCO)CC3)c(F)c2)C(=O)O1 [Compound 70]	1 (≈ 2.43 µM)	4 (≈ 9.72 µM)
COC(=S)NC[C@H]1CN(c2ccc(N3C=NN(CCOC(C)=O)CC3)c(F)c2)C(=O)O1 [Compound 71]	0.5 (≈ 1.1 µM)	4 (≈ 8.82 µM)
COC(=S)NC[C@H]1CN(c2ccc(N3C=NN(C(=S)OC)CC3)c(F)c2)C(=O)O1 [Compound 72]	0.5 (≈ 1.13 µM)	2 (≈ 4.53 µM)
CC(=S)NC[C@H]1CN(c2ccc(N3C=NN(C=O)CC3)c(F)c2)C(=O)O1 [Compound 73]	0.0625 (≈ 0.165 µM)	2 (≈ 5.27 µM)
CC(=S)NC[C@H]1CN(c2ccc(N3C=NNCC3)c(F)c2)C(=O)O1 [Compound 74]	0.25 (≈ 0.711 µM)	2 (≈ 5.69 µM)
CC(=S)NC[C@H]1CN(c2ccc(N3C=NN(CC#N)CC3)c(F)c2)C(=O)O1 [Compound 75]	0.25 (≈ 0.64 µM)	2 (≈ 5.12 µM)
CC(=S)NC[C@H]1CN(c2ccc(N3C=NN(C(=O)CO)CC3)c(F)c2)C(=O)O1 [Compound 76]	0.5 (≈ 1.22 µM)	2 (≈ 4.88 µM)
O=CN1CCN(c2ccc(N3C[C@H](CNC(=S)C(F)F)OC3=O)cc2F)C=N1 [Compound 77]	0.5 (≈ 1.2 µM)	4 (≈ 9.63 µM)
C#CCN1CCN(c2ccc(N3C[C@H](CNC(=S)C(F)F)OC3=O)cc2F)C=N1 [Compound 78]	0.5 (≈ 1.18 µM)	4 (≈ 9.4 µM)
O=CN1CCN(c2ccc(N3C[C@H](COc4ccon4)OC3=O)cc2F)C=N1 [Compound 79]	8 (≈ 20.5 µM)	> 64
O=CN1CCN(c2ccc(N3C[C@H](CNc4nccs4)OC3=O)cc2F)C=N1 [Compound 80]	2 (≈ 4.95 µM)	16 (≈ 39.6 µM)
O=CN1CCN(c2ccc(N3C[C@H](Cn4ccnn4)OC3=O)cc2F)C=N1 [Compound 81]	1 (≈ 2.68 µM)	16 (≈ 42.9 µM)
O=C1O[C@@H](Cn2ccnn2)CN1c1ccc(N2C=NNCC2)c(F)c1 [Compound 82]	2 (≈ 5.79 µM)	32 (≈ 92.7 µM)
C#CCN1CCN(c2ccc(N3C[C@H](Cn4ccnn4)OC3=O)cc2F)C=N1 [Compound 84]	0.5 (≈ 1.3 µM)	16 (≈ 41.7 µM)
